# Assay results published in patent publication US12371454B2, “Cyclic peptide compound having Kras inhibitory action” (priority 2019, dated 2025).
# Starred links: 1 amine or outer side, 2 acyl side, 3 side chain; linkers in the order of their positions; H or OH if unused. Positions of bridges follow the written chain, without caps; N, C: chain ends. Non-standard residues stand in square brackets, D forms with d. Residues, ends and D or L forms follow the SMILES beside them. *: point of attachment. hPhe(3-Cl-4-CF3) = N[C@@H](CCc1ccc(C(F)(F)F)c(Cl)c1)C(=O)O; hPhe(3,4-Cl2) = N[C@@H](CCc1ccc(Cl)c(Cl)c1)C(=O)O; Phe(4-CF3) = N[C@@H](Cc1ccc(C(F)(F)F)cc1)C(=O)O; NMeAla(4-thiazolyl) = CN[C@@H](Cc1cscn1)C(=O)O; Phe(2-CF3) = N[C@@H](Cc1ccccc1C(F)(F)F)C(=O)O; NMePhe(4-Cl) = CN[C@@H](Cc1ccc(Cl)cc1)C(=O)O; NMePhe(4-Me) = CN[C@@H](Cc1ccc(C)cc1)C(=O)O; X59 = O=C([C@H](Cc1cc(I)ccc1Cl)N[*:1])[*:2]; NMePhe(3-I) = CN[C@@H](Cc1cccc(I)c1)C(=O)O; Phe(3-I) = N[C@@H](Cc1cccc(I)c1)C(=O)O; NMeY = CN[C@@H](Cc1ccc(O)cc1)C(=O)O; NMeCha = CN[C@@H](CC1CCCCC1)C(=O)O; NMeI = CC[C@H](C)[C@H](NC)C(=O)O; N(CH2CH2)2CF2 = FC1(F)CCN(*)CC1; NMeD = CN[C@@H](CC(=O)O)C(=O)O; NMeL = CN[C@@H](CC(C)C)C(=O)O; NMeV = CN[C@H](C(=O)O)C(C)C; Pip = O=C(O)[C@@H]1CCCCN1; NMeA = CN[C@@H](C)C(=O)O; NMeAib = CNC(C)(C)C(=O)O; Nle = CCCC[C@H](N)C(=O)O; Piperidide = C1CCN(*)CC1; Pra = C#CC[C@H](N)C(=O)O; Ac5c = NC1(C(=O)O)CCCC1; Aze = O=C(O)[C@@H]1CCN1; CF3 = FC(F)(F)*; Sar = CNCC(=O)O
# Target: T1, Kras and SOS1 (biotin-tagged human Kras loaded with GDP, His-tagged human SOS1) (Homo sapiens, UniProt P01116, G12D)
# T1 construct: made in house; host or cells: E. coli (stated for Kras only)
# Assay: Protein-protein interaction inhibition between Kras and SOS1 (KrasGl2D-SOS PPI) using AlphaScreen
# Type: binding
# Conditions: AlphaScreen; biotin-tagged human Kras loaded with GDP, His-tagged human SOS1; read-out: KRAS G12D-SOS PPI IC50
# Procedure, shortened: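 Read-out is acceptor-bead light at 520-620 nm, arising when 680 nm-irradiated nickel donor beads pass singlet oxygen to streptavidin acceptors. The bead pair links His-tagged SOS1 with biotin-tagged, GDP-bound Kras from E. coli.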
# T1 sequence (P01116 1-188 isoform P01116-2 G12D): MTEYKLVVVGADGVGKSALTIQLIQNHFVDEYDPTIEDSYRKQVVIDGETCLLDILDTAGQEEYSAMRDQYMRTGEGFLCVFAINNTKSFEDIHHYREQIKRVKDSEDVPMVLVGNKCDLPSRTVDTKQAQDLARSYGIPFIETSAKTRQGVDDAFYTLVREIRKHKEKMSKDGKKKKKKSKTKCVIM
row,Structure (SMILES),IC50 [µM]
1,"CC[C@H](C)[C@@H]1NC(=O)[C@H](CC(C)C)N(C)C(=O)C[C@@H](C(=O)N2CCCCC2)N(C)C(=O)[C@H](C(C)C)N(C)C(=O)C2(CCCC2)NC(=O)[C@@H]2CCCN2C(=O)[C@H](CCc2ccc(Cl)c(Cl)c2)NC(=O)CN(C)C(=O)[C@H](CC2CCCCC2)N(C)C(=O)[C@@H]2CCCCN2C(=O)CN(C)C1=O [Compound 324] ([NMeL]I[Sar][Pip][NMeCha][Sar][hPhe(3,4-Cl2)]P[Ac5c][NMeV][NMeD]-Piperidide; lactam N-11)",0.38
2,CC[C@H](C)[C@@H]1NC(=O)[C@H](C)N(C)C(=O)C[C@@H](C(=O)N(C)C)N(C)C(=O)[C@H]([C@@H](C)CC)N(C)C(=O)C2(CCCC2)NC(=O)[C@H](Cc2cccc(I)c2)N(C)C(=O)[C@H](CCc2ccc(C(F)(F)F)c(Cl)c2)NC(=O)CN(C)C(=O)[C@H](Cc2ccc(C)cc2)N(C)C(=O)[C@@H]2CCN2C(=O)[C@H](C)N(C)C1=O [Compound 1944] ([NMeA]I[NMeA][Aze][NMePhe(4-Me)][Sar][hPhe(3-Cl-4-CF3)][NMePhe(3-I)][Ac5c][NMeI][NMeD]-NMe2; lactam N-11),0.045
3,CCCC[C@@H]1NC(=O)[C@H](Cc2cc(I)ccc2Cl)NC(=O)CN(C)C(=O)[C@H](Cc2ccc(Cl)cc2)N(C)C(=O)CN(C)C(=O)CN(C)C(=O)[C@H]([C@@H](C)CC)NC(=O)[C@H](CC(C)C)N(C)C(=O)C[C@@H](C(=O)N2CCCCC2)N(C)C(=O)[C@H](CC(C)C)NC(=O)C(C)(C)N(C)C1=O [Compound 1352] ([NMeL]I[Sar][Sar][NMePhe(4-Cl)][Sar][X59][Nle][NMeAib]L[NMeD]-Piperidide; lactam N-11),0.11
4,CC[C@H](C)[C@@H]1NC(=O)[C@H](CC(C)C)N(C)C(=O)C[C@@H](C(=O)N(C)C)N(C)C(=O)[C@H]([C@@H](C)CC)N(C)C(=O)[C@H](C(C)C)NC(=O)[C@H](Cc2cscn2)N(C)C(=O)[C@H](CCc2ccc(C(F)(F)F)c(Cl)c2)NC(=O)CN(C)C(=O)[C@H](Cc2ccc(C)cc2)N(C)C(=O)[C@@H]2CCN2C(=O)[C@H](C)N(C)C1=O [Compound 982] ([NMeL]I[NMeA][Aze][NMePhe(4-Me)][Sar][hPhe(3-Cl-4-CF3)][NMeAla(4-thiazolyl)]V[NMeI][NMeD]-NMe2; lactam N-11),0.048
5,C#CC[C@@H]1NC(=O)[C@H](Cc2cccc(I)c2)NC(=O)CN(C)C(=O)[C@H](Cc2ccc(OC(F)(F)F)cc2)N(C)C(=O)[C@@H]2CCN2C(=O)CN(C)C(=O)[C@H]([C@@H](C)CC)NC(=O)[C@H](CC(C)C)N(C)C(=O)C[C@@H](C(=O)N2CCCCC2)N(C)C(=O)[C@H](CC(C)C)NC(=O)C(C)(C)N(C)C1=O [Compound 1298] ([NMeL]I[Sar][Aze][NMeY](CF3)[Sar][Phe(3-I)][Pra][NMeAib]L[NMeD]-Piperidide; lactam N-11),0.028
6,CC(C)C[C@H]1C(=O)N[C@@H](CO)C(=O)N(C)[C@@H](C)C(=O)N2CC[C@H]2C(=O)N(C)[C@@H](CC2CCCCC2)C(=O)N(C)CC(=O)N[C@@H](CCc2ccc(C(F)(F)F)c(Cl)c2)C(=O)N2CCC[C@H]2C(=O)NC2(CCCC2)C(=O)N(C)[C@@H](C(C)C)C(=O)N(C)[C@H](C(=O)N2CCCCC2)CC(=O)N1C [Compound 1768] ([NMeL]S[NMeA][Aze][NMeCha][Sar][hPhe(3-Cl-4-CF3)]P[Ac5c][NMeV][NMeD]-Piperidide; lactam N-11),0.14
7,CC[C@H](C)[C@@H]1NC(=O)[C@H](CC(C)C)N(C)C(=O)C[C@@H](C(=O)N2CCCCC2)N(C)C(=O)[C@H](CC(C)C)NC(=O)C(C)(C)N(C)C(=O)[C@H](Cc2ccccc2C(F)(F)F)NC(=O)[C@H](Cc2cccc(I)c2)NC(=O)CN(C)C(=O)[C@H](Cc2ccc(C)cc2)N(C)C(=O)CN(C)C(=O)CN(C)C1=O [Compound 1127] ([NMeL]I[Sar][Sar][NMePhe(4-Me)][Sar][Phe(3-I)][Phe(2-CF3)][NMeAib]L[NMeD]-Piperidide; lactam N-11),0.26
8,CC[C@H](C)[C@@H]1NC(=O)[C@H](CC(C)C)N(C)C(=O)C[C@@H](C(=O)N2CCCCC2)N(C)C(=O)[C@H](CC(C)C)NC(=O)C(C)(C)N(C)C(=O)[C@H](Cc2ccc(C(F)(F)F)cc2)NC(=O)[C@H](Cc2cccc(I)c2)NC(=O)CN(C)C(=O)[C@H](CC2CCCCC2)N(C)C(=O)CN(C)C(=O)CN(C)C1=O [Compound 336] ([NMeL]I[Sar][Sar][NMeCha][Sar][Phe(3-I)][Phe(4-CF3)][NMeAib]L[NMeD]-Piperidide; lactam N-11),0.093
9,CC[C@H](C)[C@@H]1NC(=O)[C@H](CC(C)C)N(C)C(=O)C[C@@H](C(=O)N2CCCCC2)N(C)C(=O)[C@H](C(C)C)N(C)C(=O)[C@@H](C)NC(=O)[C@H](CC(=O)N2CCC(F)(F)CC2)N(C)C(=O)[C@H](CCc2ccc(C(F)(F)F)c(Cl)c2)NC(=O)CN(C)C(=O)[C@H](CC2CCCCC2)N(C)C(=O)CN(C)C(=O)CN(C)C1=O [Compound 493] ([NMeL]I[Sar][Sar][NMeCha][Sar][hPhe(3-Cl-4-CF3)][NMeD](N(CH2CH2)2CF2)[dA][NMeV][NMeD]-Piperidide; lactam N-11),0.3
